Assays:
rat lymphocytes = experiment: Cell attachment on coated low-attachment polystyrene wells; format: cell-based; conditions: 10^4 cells/well, serum-containing medium
Excerpt: (§1) Several cell types were used, including GS-9L cells (rat gliosarcoma), C3H10T1/2 (murine fibroblasts), Jurkat (human T cell), bovine aorta endothelial (BAE) cells and rat lymphocytes. GS-9L and C3H10T1/2 cells were maintained in log phase growth and detached from cultureware using Versene and collected by centrifugation. Jurkat cells grew as single cell suspensions and were collected by centrifugation. Rat lymphocytes were collected from heparinized blood by density gradient isolation over Ficoll-Hypaque® media. The collected cells were rinsed once by low speed centrifugation and suspended in either serum-free Dulbecco's Modified Eagles Medium (DMEM) containing pyruvate or RPMI 1640 containing 10% fetal bovine serum (FBS) supplemented with pyruvate. Aliquots of 10^4 cells in 100 μL were used in subsequent adhesion studies.
(§2) The cells were examined after plating using an inverted, phase-contrast microscope. […] The amount of attachment was scored visually or quantitated. To establish the relative number of cells bound, crystal violet stained cells were dissolved in a solution of 70% ethanol containing 0.1% sodium dodecyl sulfate and 0.38 M Tris and the absorbance monitored at 610 nm, using the methods of Scragg and Ferreira (Anal Biochem 198:80-5, 1991) and Grando et al. (Skin Pharmacol 6:135-47, 1993). […]

Jurkat (human T cell) = experiment: as above; format: cell-based; conditions: 10^4 cells/well, serum-containing medium
Excerpt: as §1, §2

[1] = test system: C3H10T1/2 (murine fibroblasts); experiment: Cell attachment, spreading and growth on coated low-attachment polystyrene wells; format: cell-based; conditions: C3H10T1/2; coated low-attachment polystyrene wells; 10^4 cells/well; serum-containing medium
Excerpt: as §1
(§3) The cells were examined after plating using an inverted, phase-contrast microscope. At selected time points up to 4 days after initial seeding, the cells were rinsed three times in saline and fixed in buffered 10% formalin or 35% ethanol. In some cases, the cells were stained in situ with a 0.01 % aqueous solution of crystal violet. The amount of attachment was scored visually or quantitated. To establish the relative number of cells bound, crystal violet stained cells were dissolved in a solution of 70% ethanol containing 0.1% sodium dodecyl sulfate and 0.38 M Tris and the absorbance monitored at 610 nm, using the methods of Scragg and Ferreira (Anal Biochem 198:80-5, 1991) and Grando et al. (Skin Pharmacol 6:135-47, 1993).
(§4) The cells of Example 7 were added to untreated polystyrene wells, wells coated with silyl-heparin as in Example 4, with silyl-heparin-fibronectin as in Example 5, and with only fibronectin by incubation as described in Example 5. […] Cells were seeded at a concentration of 10^4 cells/well in serum-containing medium.
The cells grew to confluency by 4 days. […] No effort was made to grow the cells in a defined- or serum-low medium known to support growth. […]

[2] = test system: thigh muscle of adult rats; experiment: Coated Vicryl sutures implanted in muscle, histology; format: in vivo; conditions: two weeks; compared to control suture
Excerpt: Vicryl suture material was coated using a solution containing silyl-heparin complex or a solution containing silyl-heparin complex followed by immersion in bFGF as described above. The suture material was then rinsed extensively, air-dried, mounted on 16 gage needles and stored until use, typically overnight. Under anesthesia, the sutures were passed through the thigh muscle of adult rats and secured with knots and surgical clips. After two weeks the animals were euthanized and the sutured area removed, fixed in formalin, and processed by standard histological methods.

[3] = molecular target: T1, vascular endothelial growth factor (VEGF) (Homo sapiens, UniProt P15692); experiment: VEGF binding to silyl-heparin coated wells, immunoassay; conditions: anti-VEGF antibodies; absorbance 405 nm
T1 sequence (P15692 27-191 isoform P15692-4 limits assumed): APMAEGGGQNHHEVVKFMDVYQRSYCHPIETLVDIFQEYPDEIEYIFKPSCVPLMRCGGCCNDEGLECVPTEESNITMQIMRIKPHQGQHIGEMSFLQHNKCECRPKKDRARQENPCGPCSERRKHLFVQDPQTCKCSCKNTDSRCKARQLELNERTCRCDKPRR
Experimental: Wells of 96 well polystyrene microtiter plates were coated with 30 μL of silyl heparin for 15 minutes at 37° C. The wells were rinsed extensively in water and air-dried. The wells were blocked by adding 250 μL of PBS containing 1 % BSA for 30 minutes. After removing the blocking solution, VEGF in PBS/BSA was added in 100 μL and at the appropriate concentration. The plate was incubated at 37° C. for 1 hour and rinsed 5 times in water. An aliquot of PBS/BSA containing rabbit anti-VEGF antibodies (1:125) was added and the plate incubated for one hour. After rinsing in water, an aliquot of PBS/BSA containing horseradish peroxidase-conjugated anti-rabbit IgG (1:250) was added and incubated for one hour. After rinsing, 200 μL of chromogen (2,2′-azinobis 3-ethylbenzothiazoline-6-[…]) from a commercially available kit was added, the color developed, and the reaction stopped by adding 50 μL of aqueous 2% sodium dodecyl sulfate (SDS). The absorbance was monitored at 405 nm.

C3H10T1/2 cells [4] = experiment: Cross-titration of fibronectin and silyl-heparin needed to support cell attachment; format: cell-based, murine; conditions: silyl-heparin titrated from 30 μg/well, fibronectin then applied at 4 μg/well; 24 hours; crystal violet, 610 nm
Experimental: The optimal amount of fibronectin and silyl-heparin to support attachment of C3H10T1/2 cells was determined by cross-titration, as shown on FIG. 1. […] The fall-off for the silyl-heparin was more gradual. The curve of the relative amount of silyl-heparin on the substrate following serial dilution generally followed the cell attachment curve.
In FIG. 1, fibronectin (Δ—Δ) or silyl-heparin (•—•) were titrated to determine the quantity needed to support attachment of C3H10T1/2 cells. All dilutions were performed in quadruplicate in wells of 96-well plates of low-attachment polystyrene. For titration of fibronectin, silyl-heparin was applied at 30 μg/well in 70% ethanol as in Example 4. After rinsing, fibronectin was applied in doubling dilutions of phosphate buffered saline starting from 4 μg/well. For titration of silyl-heparin, silyl-heparin was applied in doubling dilutions in 70% ethanol starting from silyl-heparin concentrations of 30 μg/well. Fibronectin was then applied in saline at 4 μg/well. Cells were at a concentration of 10^4 cells/well in growth medium. For both experiments, the cells were allowed 24 hours to attach and then were rinsed and fixed in buffered formalin. The cells were stained for 5 minutes with 0.01% aqueous crystal violet and the absorbance at 610 nm determined.

[5] = test system: GS-9L cells (rat gliosarcoma); experiment: Cell attachment, spreading and growth on coated low-attachment polystyrene wells; format: cell-based; conditions: 10^4 cells/well, serum-containing medium
Excerpt: as §1, §3, §4
(§5) The cells grew to confluency by 4 days. […] No effort was made to grow the cells in a defined- or serum-low medium known to support growth.

[6] = test system: bovine aorta endothelial (BAE) cells; experiment: as above; format: cell-based; conditions: 10^4 cells/well, serum-containing medium
Excerpt: as §1, §3, §4, §5

C3H10T1/2 cells [7] = experiment: C3H10T1/2 cell attachment to a variety of coated substrates; format: cell-based, murine
Experimental: as §3
The general applicability of silyl-heparin-fibronectin complex was evaluated by applying this coating using the methods of Examples 4 and 5 to a variety of surfaces, including polystyrene, polylactide:polyglycolide, polycaprolactone, polyurethane and stainless steel. […] They did, however, bind moderately well to polylactide:polyglycolide and to polycaprolactone, and very well to stainless steel.

For “benzyl-(1,2 dimethyl)disilyl heparin [silyl-heparin]”, the “CELL ATTACHMENT” value (rat lymphocytes) was “did not attach”, the “CELL ATTACHMENT” value (Jurkat (human T cell)) was “did not attach” and the “CELL ATTACHMENT” value [1] was “did not attach”. The “diameter or area of granulation tissue surrounding the suture” value [2] was “tended to have a smaller area of granulation”, the “binding of VEGF to silyl-heparin” value [3] was “VEGF bound to silyl-heparin and the binding was linear” and the “EC50 to support attachment of C3H10T1/2 cells” value (C3H10T1/2 cells [4]) was “about 8.7 μg/well”. The “CELL ATTACHMENT” value [5] was “did not attach”, the “CELL ATTACHMENT” value [6] was “did not attach” and the “C3H10T1/2 cell attachment on prolonged culture” value (C3H10T1/2 cells [7]; cells cultured for up to 4 days) was “no cell attachment was evident”. The “effect of coating or treatment on C3H10T1/2 cell attachment” value (C3H10T1/2 cells [7]; regardless of the substrate) was “essentially eliminated cell attachment” and the “C3H10T1/2 CELL ATTACHMENT” value (C3H10T1/2 cells [7]; surface: Stainless steel, determined by crystal violet staining) was “inhibition of cell attachment was noted”.
